Data taken from patent publication US20200237742A1, “Serdexmethylphenidate Conjugates, Compositions And Methods Of Use Thereof” (priority 2018, published 2020).

Tested on: healthy, nondependent, recreational stimulant users with intranasal insufflation experience
Assay: Intranasal study, treatment-emergent adverse events (Table 54)
Protocol: The study consisted of a Screening Period, an in-clinic Drug Discrimination Phase, a Treatment Phase, and a Follow-Up Visit.
All subjects were required to fast for at least 8 hours prior to each dose of study drug until approximately 4 hours after each dose. Abuse potential measures and pharmacokinetic samples were collected at different times after the administration of study drug. Subjects who successfully completed the Drug Discrimination Phase and who qualified for the Treatment Phase remained as inpatients to enter the Treatment Phase.

[1] = intranasal, d-MPH HCl 40 mg, SDX Cl 80 mg, N = 46 each

COC(=O)[C@H](c1ccccc1)[C@H]1CCCCN1C(=O)OC[n+]1cccc(C(=O)N[C@@H](CO)C(=O)O)c1.[Cl-] [serdexmethylphenidate chloride]
respiratory, thoracic, and eye disorders (nasal discomfort, nasal congestion, rhinorrhoea, epistaxis, increased lacrimation) (intranasal SDX Cl compared to intranasal d-MPH HCl): occurred more often
Abdominal distension, number of occurrences [1]: 1 E
Abdominal distension, subjects with event [1]: 1 (2.2%) n (%)
Abdominal pain, number of occurrences [1]: 2 E
Abdominal pain, subjects with event [1]: 2 (4.3%) n (%)
Agitation, number of occurrences [1]: 1 E
Agitation, subjects with event [1]: 1 (2.2%) n (%)
Anxiety, number of occurrences [1]: 1 E
Anxiety, subjects with event [1]: 1 (2.2%) n (%)
Any TEAE, number of occurrences [1]: 102 E
Any TEAE, subjects with event [1]: 36 (78.3%) n (%)
Arthralgia, number of occurrences [1]: 1 E
Arthralgia, subjects with event [1]: 1 (2.2%) n (%)
Asthenia, number of occurrences [1]: 1 E
Asthenia, subjects with event [1]: 1 (2.2%) n (%)
Back pain, subjects with event [1]: 0 n (%)
Blood pressure diastolic increased, subjects with event [1]: 0 n (%)
Bruxism, subjects with event [1]: 0 n (%)
Cardiac disorders, number of occurrences [1]: 2 E
Cardiac disorders, subjects with event [1]: 2 (4.3%) n (%)
Catheter site haematoma, number of occurrences [1]: 1 E
Catheter site haematoma, subjects with event [1]: 1 (2.2%) n (%)
Catheter site swelling, number of occurrences [1]: 1 E
Catheter site swelling, subjects with event [1]: 1 (2.2%) n (%)
Change in sustained attention, subjects with event [1]: 0 n (%)
Chest discomfort, subjects with event [1]: 0 n (%)
Chest pain, number of occurrences [1]: 1 E
Chest pain, subjects with event [1]: 1 (2.2%) n (%)
Claustrophobia, number of occurrences [1]: 1 E
Claustrophobia, subjects with event [1]: 1 (2.2%) n (%)
Cough, number of occurrences [1]: 3 E
Cough, subjects with event [1]: 3 (6.5%) n (%)
Decreased appetite, subjects with event [1]: 0 n (%)
Defaecation urgency, subjects with event [1]: 0 n (%)
Diarrhoea, number of occurrences [1]: 1 E
Diarrhoea, subjects with event [1]: 1 (2.2%) n (%)
Disturbance in attention, number of occurrences [1]: 1 E
Disturbance in attention, subjects with event [1]: 1 (2.2%) n (%)
Dizziness, number of occurrences [1]: 1 E
Dizziness, subjects with event [1]: 1 (2.2%) n (%)
Dry mouth, subjects with event [1]: 0 n (%)
Dry throat, subjects with event [1]: 0 n (%)
Dysgeusia, number of occurrences [1]: 2 E
Dysgeusia, subjects with event [1]: 2 (4.3%) n (%)
Dysmenorrhoea (menstrual cramps), subjects with event [1]: 0 n (%)
Dyspepsia, subjects with event [1]: 0 n (%)
Ecchymosis (skin discoloration), number of occurrences [1]: 1 E
Ecchymosis (skin discoloration), subjects with event [1]: 1 (2.2%) n (%)
Energy increased, subjects with event [1]: 0 n (%)
Epistaxis (nosebleed), number of occurrences [1]: 3 E
Epistaxis (nosebleed), subjects with event [1]: 3 (6.5%) n (%)
Euphoric mood, number of occurrences [1]: 9 E
Euphoric mood, subjects with event [1]: 9 (19.6%) n (%)
Eye disorders, number of occurrences [1]: 9 E
Eye disorders, subjects with event [1]: 8 (17.4%) n (%)
Eye irritation, subjects with event [1]: 0 n (%)
Eye pain, number of occurrences [1]: 1 E
Eye pain, subjects with event [1]: 1 (2.2%) n (%)
Fatigue, number of occurrences [1]: 1 E
Fatigue, subjects with event [1]: 1 (2.2%) n (%)
Feeling hot, subjects with event [1]: 0 n (%)
Feeling of relaxation, number of occurrences [1]: 2 E
Feeling of relaxation, subjects with event [1]: 2 (4.3%) n (%)
Flushing, subjects with event [1]: 0 n (%)
Gastrointestinal disorders, number of occurrences [1]: 6 E
Gastrointestinal disorders, subjects with event [1]: 4 (8.7%) n (%)
General disorders and administration site conditions, number of occurrences [1]: 7 E
General disorders and administration site conditions, subjects with event [1]: 6 (13.0%) n (%)
Haematoma, subjects with event [1]: 0 n (%)
Head discomfort, number of occurrences [1]: 1 E
Head discomfort, subjects with event [1]: 1 (2.2%) n (%)
Headache, number of occurrences [1]: 6 E
Headache, subjects with event [1]: 5 (10.9%) n (%)
Hyperhidrosis, number of occurrences [1]: 2 E
Hyperhidrosis, subjects with event [1]: 2 (4.3%) n (%)
Hypervigilance, number of occurrences [1]: 6 E
Hypervigilance, subjects with event [1]: 6 (13.0%) n (%)
Hypopnoea (shallow breathing), subjects with event [1]: 0 n (%)
Infections and infestations, subjects with event [1]: 0 n (%)
Investigations, subjects with event [1]: 0 n (%)
Irritability, number of occurrences [1]: 1 E
Irritability, subjects with event [1]: 1 (2.2%) n (%)
Lacrimation increased, number of occurrences [1]: 8 E
Lacrimation increased, subjects with event [1]: 8 (17.4%) n (%)
Metabolism and nutrition disorders, subjects with event [1]: 0 n (%)
Muscle tightness, subjects with event [1]: 0 n (%)
Muscle twitching, subjects with event [1]: 0 n (%)
Musculoskeletal and connective tissue disorders, number of occurrences [1]: 1 E
Musculoskeletal and connective tissue disorders, subjects with event [1]: 1 (2.2%) n (%)
Nasal congestion, number of occurrences [1]: 10 E
Nasal congestion, subjects with event [1]: 10 (21.7%) n (%)
Nasal discomfort, number of occurrences [1]: 14 E
Nasal discomfort, subjects with event [1]: 13 (28.3%) n (%)
Nasal dryness, number of occurrences [1]: 1 E
Nasal dryness, subjects with event [1]: 1 (2.2%) n (%)
Nausea, number of occurrences [1]: 2 E
Nausea, subjects with event [1]: 2 (4.3%) n (%)
Neck pain, subjects with event [1]: 0 n (%)
Nervous system disorders, number of occurrences [1]: 12 E
Nervous system disorders, subjects with event [1]: 11 (23.9%) n (%)
Obsessive-compulsive disorder, subjects with event [1]: 0 n (%)
Palpitations, number of occurrences [1]: 2 E
Palpitations, subjects with event [1]: 2 (4.3%) n (%)
Peripheral swelling, subjects with event [1]: 0 n (%)
Pharyngeal hypoaesthesia (numbness of throat), subjects with event [1]: 0 n (%)
Pharyngitis, subjects with event [1]: 0 n (%)
Phlebitis superficial, subjects with event [1]: 0 n (%)
Phonophobia (fear of loud noises), subjects with event [1]: 0 n (%)
Photophobia, subjects with event [1]: 0 n (%)
Psychiatric disorders, number of occurrences [1]: 19 E
Psychiatric disorders, subjects with event [1]: 13 (28.3%) n (%)
Pyrexia, subjects with event [1]: 0 n (%)
Reproductive system and breast disorders, subjects with event [1]: 0 n (%)
Respiratory, thoracic and mediastinal disorders, number of occurrences [1]: 42 E
Respiratory, thoracic and mediastinal disorders, subjects with event [1]: 25 (54.3%) n (%)
Restlessness, subjects with event [1]: 0 n (%)
Rhinorrhoea (runny nose), number of occurrences [1]: 4 E
Rhinorrhoea (runny nose), subjects with event [1]: 4 (8.7%) n (%)
Sinus tachycardia, subjects with event [1]: 0 n (%)
Skin and subcutaneous tissue disorders, number of occurrences [1]: 4 E
Skin and subcutaneous tissue disorders, subjects with event [1]: 4 (8.7%) n (%)
Skin erosion, number of occurrences [1]: 1 E
Skin erosion, subjects with event [1]: 1 (2.2%) n (%)
Sneezing, number of occurrences [1]: 1 E
Sneezing, subjects with event [1]: 1 (2.2%) n (%)
Somnolence, number of occurrences [1]: 1 E
Somnolence, subjects with event [1]: 1 (2.2%) n (%)
Tachycardia, subjects with event [1]: 0 n (%)
Testis discomfort, subjects with event [1]: 0 n (%)
Throat irritation, number of occurrences [1]: 4 E
Throat irritation, subjects with event [1]: 3 (6.5%) n (%)
Upper-airway cough syndrome, number of occurrences [1]: 2 E
Upper-airway cough syndrome, subjects with event [1]: 2 (4.3%) n (%)
Vascular disorders, subjects with event [1]: 0 n (%)
Ventricular extrasystoles, subjects with event [1]: 0 n (%)
Vessel puncture site bruise, subjects with event [1]: 0 n (%)
Vessel puncture site pain, subjects with event [1]: 0 n (%)
Visual impairment, subjects with event [1]: 0 n (%)
Vomiting, subjects with event [1]: 0 n (%)
